Assay results as given in patent US20210052600A1, “THERAPEUTIC AGENTS FOR STRESS URINARY INCONTINENCE AND INCOTINENCE OF FECES” (Takeda Pharmaceutical Company Limited, priority 2017, published 2021).
Counter-ions that a name gives are not always drawn. Like-named read-outs stand apart in the source and are kept apart here.

Assays:
[1] = Plasma concentrations in rats 30 minutes after oral administration (effective plasma concentration at LPP10); conditions: rat
Protocol: Ten female rats of SD strain were anesthetized with isoflurane. In order to secure the same conditions as those for drug-administered animals, their spinal cord was transected at the T8-T9 (the eighth thoracic cord—the ninth thoracic cord) level. Then, a cannula for blood collection was inserted into the femoral artery. […] These drugs were each dissolved in 0.5% MC. Thirty minutes after oral administration, up to 250 μL of blood was collected from the femoral artery or the tail vein and treated with heparin. The collected blood was immediately cooled on ice and centrifuged under conditions involving 3,000 rpm and 4° C. for 10 minutes to obtain plasma. The plasma samples were stored under conditions of −80° C. until drug quantification.
After thawing of the plasma samples, the internal standard compound was added thereto, and the mixture was then centrifuged under conditions of 5,250 rpm. The drug contained in 60 μL of the supernatant was quantified by LC-MS/MS.

[2] = cited from earlier work
[3] = Comparison of plasma concentrations for urethra-closing effect and anti-obesity effect (analysis of Examples 1-9 and literature)
[4] = cited from earlier work; remark: listed apart in the source
anus-closing functions = assay: Rat anus-closing functions (Anal LPP) measured by high speed infusion of saline into the rectum; type: in vivo; conditions: 1 mg/kg i.v.; 5 minutes after administration; mean ± SEM
Text: Thirty six female SD rats were used. After overnight fasting, rats were intraperitoneally administered with urethane for anesthesia, and isoflurane inhalation was further added during surgery. The abdomen was incised to expose the rectum, and a small incision of the rectum was made. A polyethylene catheter (SP61, Natsume) was inserted into the rectum through the rectum incision, and the tip of the catheter was positioned around 5 mm from the anal orifice. The other end of the catheter was connected with a pressure transducer and an infusion pump via three-way stopcocks, and the change in pressure in the rectum was measured using the pressure transducer, an electric signal amplifier, and an analog-to-digital converter. For administrating drugs, a polyethylene catheter (SP45, Natsume) was inserted into the femoral vein after exposing the vein by small incision.
After recovery period from surgery, while saline was infused at a speed of 0.1 mL/sec into the rectum using an infusion pump, change in the measured pressure—was observed. The infusion was stopped when the leakage of the saline from the anal orifice was observed. In the procedure, sudden decrease in the pressure was observed during the infusion with the leakage of saline from the anal orifice. The peak value of the pressure recorded in the rectum during the course of the procedures was defined as “an Anal LPP” in this Example. […] The Anal LPP was again measured in the same way 5 minutes after drug administration. The difference in Anal LPP from the Pre value (increased amount of Anal LPP) was calculated. Regarding change in Anal LPP before and after drug administration, the differences between the mean values of the drug-treated and vehicle-treated groups were analyzed by the one-tailed Williams' test or Student's t-test.

urethral resistance [5] = assay: Rat urethral resistance (LPP) measured by high speed infusion of saline into the bladder; type: in vivo; conditions: for LPP Post: 30 minutes after administration; for LPP Post / LPP Increase / LPP Pre: mean ± SEM; for LPP Increase: Post minus Pre; for LPP Pre: before administration
Text: The rats were anesthetized with isoflurane. Their spinal cord was transected at the T8-T9 (the eighth thoracic cord—the ninth thoracic cord) level. After opening of the bladder dome, two polyethylene tubes (PE-100) were inserted into the bladder. The incised portion of the bladder was closed with sutures, and the other incisions were also closed. The rats were placed in Bollman cages. The catheter for intravesical pressure measurement was connected to a pressure transducer, while the catheter for saline filling was connected to a syringe filled with Evans Blue-dyed saline. Change in intravesical pressure was recorded using the pressure transducer via an electric signal amplifier and an analog-to-digital converter. After recovery of the animals from anesthesia, the intravesical pressure measurement was started, and saline was infused at a speed of 0.1 mL/sec into the bladder using an infusion pump. The infusion was stopped when the leakage of the saline from the urethral orifice was observed. Immediately thereafter, the bladder was emptied by releasing the pressure. In this operation, the peak of recorded intravesical pressure during the saline infusion was used as LPP in this Example. This measurement was repeated, and the average LPP from the last three measurements was used as the LPP value of the trial. The mean from 2 such trials was used as a Pre value. 0.5% MC was used as the vehicle. […] The difference in LPP from the Pre value (increased amount of LPP) was calculated. Regarding change in LPP before and after drug administration, the differences between the mean values of the drug-treated and vehicle-treated groups were analyzed by the one-tailed Williams' test.

[6] = Body weight of obese rats (DIO-F344) under continuous subcutaneous administration and effective plasma concentration; type: in vivo, rat; conditions: for Change in body weight (% change): mean ± SEM
Protocol: Forty male DIO-F344 rats bred with high fat diet (42 kcal % fat) were used. On the day before surgery, the rats were grouped on the basis of their body weight. Compound A′ and Compound B′ were each dissolved in saline. Osmotic pumps filled with the Compound A′ or Compound B′ solution were subcutaneously implanted in the rats under isoflurane anesthesia. The body weight just after surgery was used as a Pre value, and the body weight was measured every day until 14 days after surgery. Regarding the averages in the body weight on Day 14, the difference in the mean averages of the drug-treated group and the vehicle-treated group was analyzed by the one-tailed Williams' test.
The average Day 14 plasma concentration from the values of each rat measured in the morning and afternoon was used as a plasma concentration for the animal. The rate of change in body weight was calculated from the values measured just after and 14 days after osmotic pump implantation. The rate (average rate) of change of the vehicle group was subtracted from that of each drug-administered rat to plot the plasma concentration and the change in body weight. The plasma concentration at which the drug lowered the body weight by 3.8% was calculated by linear regression analysis.

[7] = system: urethra-closing reflex response; assay: Urethra-closing reflex response induced by intravesical pressure rise in rats; type: in vivo, rat; conditions: 20 mg/kg i.d., mean ± SEM
Protocol: Thirty-two female rats of SD strain were used. The rats were anesthetized with urethane. Isoflurane inhalation was added during the surgery, if necessary. Their spinal cord was transected at the T8-T9 (the eighth thoracic cord—the ninth thoracic cord) level to eliminate the reflex voiding and to inhibit the transition from the urine storage phase to the voiding phase in the voiding cycle. After opening of the abdomen, the bladder neck was ligated with suture, and a catheter (PE-100) was inserted into the bladder. The bladder catheter was connected to a pressure transducer and a saline-containing reservoir via three-way stopcocks. A microtip transducer catheter was inserted from the urethral orifice toward the bladder so that its transducer was inserted into the urethra. Local change in pressure within the urethra (intraurethral pressure) was recorded via an electric signal amplifier and an analog-to-digital converter. […] Then, the reservoir was brought back to the original position to adjust the intravesical pressure to its baseline. Such change in intraurethral pressure induced by intravesical pressure rise was repeatedly measured, and the mean value from the last 2 trials was used as a Pre value. The vehicle used was 0.5% MC. […] Thirty minutes after administration, the change in intraurethral pressure induced by intravesical pressure rise was measured again and used as a Post value. The average value before intravesical pressure rise was subtracted from the average value during intravesical pressure rise, and the subtracted value was used as urethra-closing reflex response. The ratio of the Post value to the Pre value was calculated.

urethral resistance [8] = assay: Urethral resistance (LPP) during intravesical pressure rise by electrical stimulation of rat abdominal muscle; type: in vivo; conditions: mean ± SEM; for LPP Post: 30 minutes after administration; for LPP Increase: Post minus Pre; for LPP Pre: before administration
Protocol: Fifty six female rats of Sprague-Dawley strain (hereinafter, referred to as “SD strain”) were used. The rats were anesthetized with urethane, and their spinal cord was transected at the T8-T9 (the eighth thoracic cord—the ninth thoracic cord) level for the elimination of reflex voiding. Isoflurane inhalation was added, if necessary. After opening of the abdomen, a catheter (PE-100) was inserted into the bladder. In order to secure reduced urethral resistance, unilateral nerve to iliococcygeus and pubococcygeus muscles was transected. For intraduodenal administration, another catheter (PE-50) was inserted into the duodenum in advance. The abdominal muscle and skin were each closed with sutures. Two (right and left) sites of abdominal skin near the diaphragm were cut to expose abdominal muscle. The bladder was emptied through the catheter, followed by the injection of 0.2 to 0.3 mL of 0.1% Evans blue solution. Change in intravesical pressure was recorded using the bladder catheter via a pressure transducer, an electric signal amplifier, and an analog-to-digital converter. While change in intravesical pressure was recorded, the presence or absence of fluid leakage from the urethral orifice was observed under the electrical stimulation of the exposed abdominal muscle using an electrical stimulator and an isolator. […] The peak of the intravesical pressure during the stimulation of the abdominal muscle was measured, and the lowest pressure at which the fluid leakage was observed among the trials was defined as leak point pressure (hereinafter, referred to as “LPP”) for the electrical abdominal muscle stimulation method and used as an index for urethral resistance. Each drug was evaluated for its effect by comparing LPP before drug administration with that after drug administration. […] The drugs were suspended in 0.5% methylcellulose solution (MC). […] LPP was measured again 30 minutes after administration. Regarding change in LPP before and after drug administration, the differences between the mean values of the drug-treated and vehicle groups were analyzed by the one-tailed Williams' test.

urethra-closing response = assay: MT (threshold inducing urethra-closing response) under transcranial magnetic stimulation in healthy female volunteers; type: in vivo, human; conditions: for MT of the urethra-closing response in response to TMS, Mean / Rate of change from baseline of MT of the urethra-closing response in response to TMS, Mean: 40 mg capsule single oral dose
Protocol: The test subjects were healthy female volunteers having a body weight of at least 45 kg (average: 50.91 kg, standard deviation: 3.346) and a BMI value of 18.5 kg/m^2 to 25.0 kg/m^2 (average: 19.57 kg/m^2, standard deviation: 0.929).
A washout period of at least 7 days was provided between the treatments.
A capsule containing 40 mg of duloxetine was orally administered as duloxetine together with water. A placebo capsule containing saccharose and spherical starch granules was orally administered as a placebo for duloxetine together with water.
Specifically, during the TMS, the output of a magnetic stimulator (Magstim Rapid Square, manufactured by Magstim Co., Ltd.) was increased by 5% each time using 110 mm double cone coil, and the minimum output at which urethra-closing response occurred abruptly was determined and used as MT (%). The urethra-closing response was detected by measuring contractile responses within the urethra. The contractile response within the urethra was measured using Duet Logic G2 (manufactured by Mediwatch Ltd.) and UniTip (manufactured by Unisensor AG). MT was measured again after administration of each drug, and the rate of change (%) from the baseline was calculated. The rate of change was determined by dividing MT after administration of each drug by MT before administration.

## C[C@H]1CNCCc2ccc(Cl)cc21 [Compound B, (R)-8-chloro-1-methyl-2,3,4,5-tetrahydro-1H-3-benzazepine]
[1]; female, SD, plasma, po, 4 mg/kg
  concentration at 30 min: 32.9 ± 18 ng/mL
[1]; measured concentration multiplied by ratio between dosage used and LPP10
  plasma concentration at LPP10: 9.9 ng/mL
[2]; 10 mg b.i.d. (launched dose), free form
  average plasma concentration in a day (steady state) giving a body weight lowering effect greater than placebo by 3.8% in humans: 43 ng/mL
[2]; 10 mg q.d., free form
  average plasma concentration in a day (steady state) giving a body weight lowering effect greater than placebo by 2.6% in humans: 24 ng/mL
[2]; after a single administration of a sustained release formulation containing 20 mg
  blood concentration: 39 ng/mL
[2]; launched dose 10 mg bid
  plasma concentration Cmin: 26 ng/mL
[2]; sustained release formulation containing 20 mg once daily
  blood concentration: 74 ng/mL
[3]; second analysis: 14-fold lower than 43 ng/mL
  plasma concentration estimated to show sufficient effects on urethra-closing function in humans: around 3 ng/mL

## C[C@H]1CNCCc2ccc(Cl)cc21 [Compound B′, (R)-8-chloro-1-methyl-2,3,4,5-tetrahydro-1H-3-benzazepine]
[4]; 10 mg bid group
  patients with adverse events: 57.9%
  subjects with headache: 32.5%
  subjects with nausea: 8.8%
[4]; 10 mg once daily (QD) (Blossom trial)
  difference of body weight loss from placebo: 2.6%
[4]; obese patients, 10 mg twice daily (Blossom trial)
  weight loss, difference from placebo group: 3.8%
anus-closing functions
  Anal LPP Increase: 13.8 ± 5.7 cmH2O
Urethral resistance [5]; Table 8, 1 mg/kg p.o.
  LPP Post: 77.0 ± 3.6 cm H2O
  LPP Increase: 9.0 ± 1.9 cm H2O
  LPP Pre: 67.9 ± 2.5 cm H2O
Urethral resistance [5]; Table 8, 2.5 mg/kg p.o.
  LPP Post: 88.1 ± 3.5 cm H2O
  LPP Increase: 19.6 ± 1.7 cm H2O
  LPP Pre: 68.5 ± 3.8 cm H2O
Urethral resistance [5]; Table 8, 5 mg/kg p.o.
  LPP Post: 85.4 ±4.1 cm H2O
  LPP Increase: 25.1 ± 2.7 cm H2O
  LPP Pre: 60.2 ± 5.1 cm H2O
Urethral resistance [5]; oral administration, high speed saline infusion method
  LPP10, the dose that increases LPP by 10 cm H2O: 1.2 mg/kg
[2]; after a single dose of 10 mg
  half-life in blood: 11.1 h
  maximum blood concentration: 46.0 ng/mL
[2]; immediate release formulation 10 mg once daily (Blossom trial)
  maximum blood concentration: 40 ng/mL
[2]; immediate release formulation 10 mg twice daily (Blossom trial)
  maximum blood concentration (Cmax): 56 ng/mL
[6]; 0.45 mg/animal/day s.c. osmotic pump, day 3
  Change in body weight (% change): −0.9 ± 0.2 % change
[6]; 0.45 mg/animal/day s.c. osmotic pump, day 7
  Change in body weight (% change): −1.4 ± 0.5 % change
[6]; 0.45 mg/animal/day s.c. osmotic pump, day 10
  Change in body weight (% change): −3.3 ± 0.4 % change
[6]; 0.45 mg/animal/day s.c. osmotic pump, day 14
  Change in body weight (% change): −3.7 ± 0.6 % change
[6]; 1.35 mg/animal/day s.c. osmotic pump, day 3
  Change in body weight (% change): −1.4 ± 0.3 % change
[6]; 1.35 mg/animal/day s.c. osmotic pump, day 7
  Change in body weight (% change): −2.5 ± 0.5 % change
[6]; 1.35 mg/animal/day s.c. osmotic pump, day 10
  Change in body weight (% change): −4.6 ± 0.3 % change
[6]; 1.35 mg/animal/day s.c. osmotic pump, day 14
  Change in body weight (% change): −5.4 ± 0.2 % change
[6]; 4.5 mg/animal/day s.c. osmotic pump, day 3
  Change in body weight (% change): −3.1 ± 0.6 % change
[6]; 4.5 mg/animal/day s.c. osmotic pump, day 7
  Change in body weight (% change): −4.8 ± 0.9 % change
[6]; 4.5 mg/animal/day s.c. osmotic pump, day 10
  Change in body weight (% change): −7.1 ± 0.7 % change
[6]; 4.5 mg/animal/day s.c. osmotic pump, day 14
  Change in body weight (% change): −8.6 ± 1.0 % change
[6]; DIO-F344 rats, day 14, vehicle-subtracted, linear regression analysis
  plasma concentration at which the drug lowered the body weight by 3.8%: 140 ng/mL

## CNCC[C@H](Oc1cccc2ccccc12)c1cccs1 [Duloxetine, duloxetine hydrochloride]
[7]; 30 minutes after administration, intravesical pressure rise by 50 cm H2O
  Urethra-closing reflex response Post: 8.66 ± 1.34 cmH2O
[7]; before administration, intravesical pressure rise by 50 cm H2O
  Urethra-closing reflex response Pre: 4.88 ± 0.86 cmH2O
[7]; ratio of Post value to Pre value
  Urethra-closing reflex response Ratio (Post/Pr): 2.00 ± 0.28
Urethral resistance [8]; 5 mg/kg i.d.
  LPP Post: 38.3 ± 2.7 cmH2O
  LPP Increase: 1.7 ± 1.4 cmH2O
  LPP Pre: 36.6 ± 3.0 cmH2O
Urethral resistance [8]; 10 mg/kg i.d.
  LPP Post: 39.1 ± 2.9 cmH2O
  LPP Increase: 3.7 ± 2.3 cmH2O
  LPP Pre: 35.3 ± 3.0 cmH2O
Urethral resistance [8]; 20 mg/kg i.d.
  LPP Post: 46.6 ± 5.7 cmH2O
  LPP Increase: 9.7 ± 3.5 cmH2O
  LPP Pre: 36.9 ± 2.8 cmH2O
urethra-closing response; 0.5 hr
  MT of the urethra-closing response in response to TMS, Mean: 67.4%
  Rate of change from baseline of MT of the urethra-closing response in response to TMS, Mean: −0.4%
urethra-closing response; 2 hr
  MT of the urethra-closing response in response to TMS, Mean: 62.0%
  Rate of change from baseline of MT of the urethra-closing response in response to TMS, Mean: −5.9%
urethra-closing response; 6 hr
  MT of the urethra-closing response in response to TMS, Mean: 56.4%
  Rate of change from baseline of MT of the urethra-closing response in response to TMS, Mean: −11.8%
urethra-closing response; Predose
  MT of the urethra-closing response in response to TMS, Mean: 67.8%
urethra-closing response; 40 mg group, at 6 hours post dose
  maximum change from baseline in MT in response to TMS: −11.8%
Urethral resistance [5]; 5 mg/kg p.o.
  LPP Post: 64.1 ± 5.5 cmH2O
  LPP Increase: 4.2 ± 1.7 cmH2O
  LPP Pre: 59.9 ± 5.1 cmH2O
Urethral resistance [5]; 10 mg/kg p.o.
  LPP Post: 67.6 ± 3.5 cmH2O
  LPP Increase: 7.7 ± 2.2 cmH2O
  LPP Pre: 59.8 ± 3.8 cmH2O
Urethral resistance [5]; 20 mg/kg p.o.
  LPP Post: 69.8 ± 4.0 cmH2O
  LPP Increase: 11.9 ± 3.7 cmH2O
  LPP Pre: 57.9 ± 2.7 cmH2O
Urethral resistance [5]; 40 mg/kg p.o.
  LPP Post: 73.3 ± 5.3 cmH2O
  LPP Increase: 13.1 ± 2.9 cmH2O
  LPP Pre: 60.2 ± 3.1 cmH2O
[3]; summary of Examples 2 and 5
  maximal urethral resistance increasing effect (LPP elevation) in rats: around 10 cmH2O
